Measurements from patent publication US20020052323A1, “Quinoline-(C=O)-(multiple amino acids)-leaving group compounds for pharmaceutical compositions and reagents” (priority 2000, published 2002).
Structures can show the parent of a compound that is named as a salt. Values belong to the compound of their own block, whether it stands above or below them. Peptide text beside a SMILES is read from it. * marks the point of attachment. Cbz = O=C(OCc1ccccc1)*; CH2F = FC*

Legend:
[1] = target: T1, caspase 1 (Homo sapiens, UniProt P29466); assay: Caspase inhibition assay, AcYVAD-AFC substrate; format: biochemical; conditions: from figure, antilog of log concentration; read-out: IC50 caspase 1
T1 sequence (P29466 120-297 limits assumed): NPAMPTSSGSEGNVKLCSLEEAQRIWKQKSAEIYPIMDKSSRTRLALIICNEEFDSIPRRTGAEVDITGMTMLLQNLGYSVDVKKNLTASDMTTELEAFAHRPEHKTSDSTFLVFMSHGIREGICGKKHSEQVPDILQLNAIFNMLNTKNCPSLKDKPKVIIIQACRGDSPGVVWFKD
T1 sequence (P29466 317-404 limits assumed): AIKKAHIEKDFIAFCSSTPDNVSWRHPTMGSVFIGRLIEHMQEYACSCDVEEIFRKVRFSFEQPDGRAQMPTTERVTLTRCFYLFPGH
Procedure: The determination of the IC50/μm was performed according to Gary Johnson, 9401 James Avenue, Suite No. 155, Bloomington, Minn. 55431.
Caspase Inhibition Assay:—Caspases are diluted in caspase buffer, 0.1 M HEPES, 10% sucrose 0.1% CHAPS and 10 mM DTT, pH 7.5. Caspases 1, 3, and 8 are used at a concentration of 144 U/well and caspase 9 is used at 4.8 U/well in a 96 well fluorometric plate.
Inhibitors are initially dissolved in DMSO at 10 mg/ml and further dilutions can be prepared in caspase buffer. The inhibitors are generally tested at concentrations ranging from 50 uM to 0.005 uM. These are usually prepared as 2 fold or 2.5 fold decreasing dilutions. The enzyme approximately 144 U in 120 ul caspase buffer is added to 380 ul caspase buffer containing the appropriate concentration on the inhibitor and incubated on ice for 15 min. The reactants 200 ul are then added to a black fluorimetric plate and incubated in the fluorometer at 37° C. for 30 min.
During the incubation period appropriate coumarin substrates are prepared by dilution in DMSO and caspase buffer to provide a 0.417 mM working stock. AcYVAD-AFC is used for caspase 1, AcDEVD-AFC for caspase 3. AcIETD-AFC for caspase 8 and Ac-LEHD-AFC for capsase 9. Twenty five microliters of the stock solution are added to 200 ul of the caspase and inhibitor test solutions to give a final substrate concentration of 0.046 mM.
The fluorometer is set to 400 nm excitation and 505 nm emission. The enzyme-inhibitor-substrate is allowed to incubate at for an additional twenty min. and the response is read as fluorescence units vs inhibitor concentration. The responses are plotted as percent of the maximum response (response in the absence of inhibitor) for each concentration of the inhibitor. The inhibitory activity for each inhibitor is described as the concentration of inhibitor that produces a 50% inhibition of the maximum response (IC50).

[2] = test system: WEHI 231 cells; assay: TUNEL analysis of Actinomycin D induced apoptosis, flow cytometry; format: cell-based, murine; design: key to rank of result in TUNEL analysis: ***: Best result; **: Second best result; *: Third best result; conditions: for effective concentration in TUNEL test: blind test by TUNEL method, conclusions; for efficacy in TUNEL test, in words: 10 sequences in a blind test
Procedure: Flow Cytometry measures the percent of the cell population undergoing apoptosis. The effect of the inhibitors is identified as a reduction in the percent of the cell population undergoing apoptosis. Cell Type: WEHI 231 cells, murine immature B cells (suspension) Plate cells at 2×10^5/ml in 10 ml of media (Total 2×10^6 cells) Preincubate caspase inhibitors (Formula I) one hour before inducing apoptosis. […] Actinomycin D (ActD) stock is 1 μg/μl add 10 μl/10 ml)-Treat 4 h Process for Tunel Analysis. (See Table 2 below). […] Cell Processing for Tunel Analysis and Flow Cytometry. Centrifuge cells at 300× g for 5 min and aspirate supernatant. Resuspend cells in 5.0 ml of cold 1× PBS, Spin at 300× g, 5 min. Aspirate supernatant. […] Incubate for 15 min. on ice. […] Aspirate supernatant. […] Aspirate supernatant. […] Aspirate supernatant. Resuspend the cell in 300 μl of cold IX PBS, Transfer to a 1.5 ml tube. […] Store at −20° C. at least 18 hr prior to Tunel Labeling Fixed cells are stable for at least 30 days. Process fixed cells for Tunel using the Apo-BRDU kit from Pharmingen (San Diego, Calif.) following the manufacturer's instructions and analyze by flow cytometry.

[3] = test system: WEHI 231 cells; assay: TUNEL analysis, inhibitor alone (toxicity control); format: cell-based, murine; conditions: no ActD
Procedure: Flow Cytometry measures the percent of the cell population undergoing apoptosis. The effect of the inhibitors is identified as a reduction in the percent of the cell population undergoing apoptosis. Cell Type: WEHI 231 cells, murine immature B cells (suspension) Plate cells at 2×10^5/ml in 10 ml of media (Total 2×10^6 cells) Preincubate caspase inhibitors (Formula I) one hour before inducing apoptosis. […] [table] Process fixed cells for Tunel using the Apo-BRDU kit from Pharmingen (San Diego, Calif.) following the manufacturer's instructions and analyze by flow cytometry.

[4] = 1 μM inhibitor + ActD, WEHI 231, lower = greater inhibitory activity
[5] = 10 μM inhibitor + ActD, WEHI 231
[6] = 20 μM inhibitor + ActD, WEHI 231
[7] = 30 μM inhibitor + ActD, WEHI 231
[8] = 40 μM inhibitor + ActD, WEHI 231
[9] = 50 μM inhibitor + ActD, WEHI 231
[10] = 100 μM inhibitor + ActD, WEHI 231
[11] = markers in structure designation table

IC50 [1]: ~170 nM
Compound: Bzl-melatonin-V-D(OMe)—CH2—O—Ph

IC50 [1]: ~115 nM
Compound: hydroxy Trp-TTP-V-D(OMe)—CH2—O—Ph

IC50 [1]: ~460 nM
Compound: indole-(2-carbonyl)-3-V-D(OMe)—CH2—O—Ph

IC50 [1]: ~38 nM
Compound: hydroxy quinoline-(2-carbonyl)-VD-OPh

IC50 [1]: ~50 nM
Compound: CC(C)[C@H](NC(=O)c1ccc2ccccc2n1)C(=O)N[C@@H](CC(=O)O)C(=O)COc1ccccc1 [quinoline-(2-carbonyl)-V-D-CH2—OPh]

Compound: COC(=O)CC(NC(=O)CCNC(=O)c1ccc2ccccc2n1)C(=O)CF (stereo not drawn) [Inhibitor A^1, Q-βAla-Asp(OMe)-FMK]
% non-viable cells [2, 4]: 62%
% non-viable cells [2, 5]: 57%
% non-viable cells [2, 6]: 42%
% non-viable cells [2, 7]: 40%
% non-viable cells [2, 8]: 15%
% non-viable cells [2, 9]: 32%
% non-viable cells [2, 10]: 9%
effective concentration in TUNEL test [2]: 40 µM
% non-viable cells, inhibitor alone ([3]; 20 μM Inh alone): 5%
% non-viable cells, inhibitor alone ([3]; 100 μM Inh alone): 5%

IC50 [1]: ~624 nM
Compound: COC(=O)CC(NC(=O)[C@@H](NC(=O)[C@@H](N)Cc1c[nH]c2ccccc12)C(C)C)C(=O)COc1ccccc1 (stereo partly drawn) [TFA Trp-V-D(OMe)—CH2—O—Ph TFA]

Compound: COC(=O)CC(NC(=O)C(C)NC(=O)C(NC(=O)OCc1ccccc1)C(C)C)C(=O)CF (stereo not drawn) [Z-VAD-FMK, Benzyloxycarbonyl-Val-Ala-Asp (OMe) fluoromethylketone, reference compound] (Cbz-Val-Ala-Asp(OMe)-CH2F; configuration not given here)
% non-viable cells [2, 4]: 33%
% non-viable cells [2, 5]: 64%
% non-viable cells [2, 6]: 17%
% non-viable cells [2, 7]: 19%
% non-viable cells [2, 8]: 12%
% non-viable cells [2, 9]: 8%
% non-viable cells [2, 10]: 6%
effective concentration in TUNEL test [2]: 20 µM
% non-viable cells, inhibitor alone ([3]; 20 μM Inh alone): 3%
% non-viable cells, inhibitor alone ([3]; 100 μM Inh alone): 7%

Compound: Q-βAla-Asp(OMe)—CH2—OPh [Inhibitor C^1]
% non-viable cells [2, 4]: 88%
% non-viable cells [2, 5]: 87%
% non-viable cells [2, 6]: 72%
% non-viable cells [2, 7]: 71%
% non-viable cells [2, 8]: 78%
% non-viable cells [2, 9]: 68%
% non-viable cells [2, 10]: 3%
effective concentration in TUNEL test [2]: 100 µM
% non-viable cells, inhibitor alone ([3]; 20 μM Inh alone): 3%
% non-viable cells, inhibitor alone ([3]; 100 μM Inh alone): 4%

Compound: COC(=O)CC(NC(=O)C(C)NC(=O)C(NC(=O)OCc1ccccc1)C(C)C)C(=O)COc1c(F)cccc1F (stereo not drawn) [Inhibitor G^1, 2-Val-Ala-Asp(OMe)—CH2—OPh]
% non-viable cells [2, 4]: 56%
% non-viable cells [2, 5]: 62%
% non-viable cells [2, 6]: 57%
% non-viable cells [2, 7]: 52%
% non-viable cells [2, 8]: 62%
% non-viable cells [2, 9]: 56%
% non-viable cells [2, 10]: 8%
effective concentration in TUNEL test [2]: 100 µM
% non-viable cells, inhibitor alone ([3]; 20 μM Inh alone): 1%
% non-viable cells, inhibitor alone ([3]; 100 μM Inh alone): 1%

Compound: MQ-Ala-Asp(OMe)—CH2—OPh [Inhibitor F^1]
% non-viable cells [2, 4]: 32%
% non-viable cells [2, 5]: 35%
% non-viable cells [2, 6]: 47%
% non-viable cells [2, 7]: 61%
% non-viable cells [2, 8]: 36%
% non-viable cells [2, 9]: 20%
% non-viable cells [2, 10]: 21%
effective concentration in TUNEL test [2]: not effective
% non-viable cells, inhibitor alone ([3]; 20 μM Inh alone): 5%
% non-viable cells, inhibitor alone ([3]; 100 μM Inh alone): 5%

Compound: 4HQ-Ala-Asp(OMe)—CH2—OPh [Inhibitor H^1]
% non-viable cells [2, 4]: 81%
% non-viable cells [2, 5]: 92%
% non-viable cells [2, 6]: 88%
% non-viable cells [2, 7]: 91%
% non-viable cells [2, 8]: 85%
% non-viable cells [2, 9]: 82%
% non-viable cells [2, 10]: 83%
effective concentration in TUNEL test [2]: not effective
% non-viable cells, inhibitor alone ([3]; 20 μM Inh alone): 3%
% non-viable cells, inhibitor alone ([3]; 100 μM Inh alone): 2%

Compound: COC(=O)CC(NC(=O)C(C)NC(=O)c1ccc2ccccc2n1)C(=O)CF (stereo not drawn) [Inhibitor D^1, Q-Ala-Asp(OMe)-FMK]
% non-viable cells [2, 4]: 88%
% non-viable cells [2, 5]: 67%
% non-viable cells [2, 6]: 16%
% non-viable cells [2, 7]: 2%
% non-viable cells [2, 8]: 1%
% non-viable cells [2, 9]: 2%
% non-viable cells [2, 10]: 1%
efficacy in TUNEL test, in words [2]: most efficacious
rank of result in TUNEL analysis ([2]; Table 3 markers): D^1*
effective concentration in TUNEL test [2]: 20 µM
rank of result in TUNEL analysis [2, 11]: Q-Ala-Asp(OMe)-FMK*
% non-viable cells, inhibitor alone ([3]; 20 μM Inh alone): 6%
% non-viable cells, inhibitor alone ([3]; 100 μM Inh alone): 8%

IC50 [1]: ~139 nM
Compound: COC(=O)C[C@H](NC(=O)[C@@H](NC(=O)NCCc1c[nH]c2ccc(OC)cc12)C(C)C)C(=O)COc1c(F)cccc1F [melatonin-V-D(OMe)—CH2—O—Ph, 5-methoxytrytamine-carbonyl-Val Asp(OMe)-α-(2-oxy-2,6-Difluorophenyl) Methyl Ketone]

IC50 [1]: ~940 nM
Compound: COC(=O)CC(NC(=O)C(CC(C)C)NC(=O)c1ccc2ccccc2n1)C(=O)COc1ccccc1 (stereo not drawn) [Inhibitor J^1, Q-Leu-Asp(OMe)—CH2—OPh]
% non-viable cells [2, 4]: 88%
% non-viable cells [2, 5]: 16%
% non-viable cells [2, 6]: 3%
% non-viable cells [2, 7]: 2%
% non-viable cells [2, 8]: 2%
% non-viable cells [2, 9]: 2%
% non-viable cells [2, 10]: 3%
efficacy in TUNEL test, in words [2]: most efficacious
rank of result in TUNEL analysis ([2]; Table 3 markers): J^1**
effective concentration in TUNEL test [2]: 10 µM
rank of result in TUNEL analysis [2, 11]: Q-Leu-Asp(OMe)—CH2—OPh**
% non-viable cells, inhibitor alone ([3]; 20 μM Inh alone): 1%
% non-viable cells, inhibitor alone ([3]; 100 μM Inh alone): 1%

Compound: COC(=O)CC(NC(=O)C(NC(=O)c1ccc2ccccc2n1)C(C)C)C(=O)COc1c(F)cccc1F (stereo not drawn) [Inhibitor I^1, Q-Val-Asp(OMe)—CH2—OPh]
% non-viable cells [2, 4]: 88%
% non-viable cells [2, 5]: 2%
% non-viable cells [2, 6]: 3%
% non-viable cells [2, 7]: 2%
% non-viable cells [2, 8]: 3%
% non-viable cells [2, 9]: 2%
% non-viable cells [2, 10]: 2%
efficacy in TUNEL test, in words [2]: most efficacious
rank of result in TUNEL analysis ([2]; Table 3 markers): I^1***
effective concentration in TUNEL test [2]: 10 µM
rank of result in TUNEL analysis [2, 11]: Q-Val-Asp(OMe)—CH2—OPh***
% non-viable cells, inhibitor alone ([3]; 20 μM Inh alone): 2%
% non-viable cells, inhibitor alone ([3]; 100 μM Inh alone): 53%

Compound: HQ-Ala-Asp(OMe)—CH2—OPh [Inhibitor E^1]
% non-viable cells [2, 4]: 29%
% non-viable cells [2, 5]: 38%
% non-viable cells [2, 6]: 13%
% non-viable cells [2, 7]: 25%
% non-viable cells [2, 8]: 7%
% non-viable cells [2, 9]: 12%
% non-viable cells [2, 10]: 10%
effective concentration in TUNEL test [2]: 20 µM
% non-viable cells, inhibitor alone ([3]; 20 μM Inh alone): 1%
% non-viable cells, inhibitor alone ([3]; 100 μM Inh alone): 1%
